According to patent publication US11510920B2, “Compositions and methods for treating EZH2-mediated cancer” (Icahn School of Medicine at Mount Sinai, priority 2016, dated 2022):

Assays:
Format in all cases: cell-based
MDA-MB-468 cells = assay: Proliferation assay (IncuCyte cell confluence), MDA-MB-468; settings: Homo sapiens, concentration for 50% of maximal inhibition of cell proliferation
Procedure: (§1) 1-3×10^3 cells were seeded in 96-well plates in duplicates and treated at the indicated compound concentrations. Cells were monitored using the IncuCyte® live cell imaging system (Essen BioScience™, Ann Arbor, Mich.) which was placed in a cell culture incubator operated at 37° C. and 5% CO2. Cell confluence was determined using calculations derived from phase-contrast images. The concentration for 50% of maximal inhibition of cell proliferation (GI50) values were determined by fitting to a standard four-parameter logistic using GraphPad Prism® v5. Graphs depicting the GI50s of select EZH2 degraders/disruptors described here for various cancer cell lines are shown in FIGS. 4-49.

MCF-7 cells = assay: Proliferation assay (IncuCyte cell confluence), MCF-7; settings: Homo sapiens, MCF7, concentration for 50% of maximal inhibition of cell proliferation
Procedure: as §1

HCC1954 cells = assay: Proliferation assay (IncuCyte cell confluence), HCC1954; settings: Homo sapiens, concentration for 50% of maximal inhibition of cell proliferation
Procedure: as §1

BT549 cells = assay: Proliferation assay (IncuCyte cell confluence), BT549; settings: Homo sapiens, BT-549, concentration for 50% of maximal inhibition of cell proliferation
Procedure: as §1

HCC1187 cells = assay: Proliferation assay (IncuCyte cell confluence), HCC1187; settings: Homo sapiens, concentration for 50% of maximal inhibition of cell proliferation
Procedure: as §1

HCC1170 cells = assay: Proliferation assay (IncuCyte cell confluence), HCC1170; settings: concentration for 50% of maximal inhibition of cell proliferation
Procedure: as §1

| SMILES | GI50 (MDA-MB-468 cells) | GI50 (MCF-7 cells) | GI50 (HCC1954 cells) | GI50 (BT549 cells) | GI50 (HCC1187 cells) | GI50 (HCC1170 cells) |
| --- | --- | --- | --- | --- | --- | --- |
| CCCc1cc(C)[nH]c(=O)c1CNC(=O)c1cc(-c2ccc(N3CCN(CCNC(=O)CC45CC6CC(CC(C6)C4)C5)CC3)nc2)cc2c1cnn2C(C)C [AM16-10A, 6-(6-(4-(2-(2-((3r,5r,7r)-adamantan-1-yl)acetamido)ethyl)piperazin-1-yl)pyridin-3-yl)-1-isopropyl-N-((6-methyl-2-oxo-4-propyl-1,2-dihydropyridin-3-yl)methyl)-1H-indazole-4-carboxamide] | 1.4 µM | 1.2 µM |  |  | 0.57 µM | 1.2 µM |
| Cc1cc(C)c(CNC(=O)c2cc(-c3ccc(N4CCN(CCNC(=O)[C@H](C)CCC56CC7CC(CC(C7)C5)C6)CC4)nc3)cc3c2cnn3C(C)C)c(=O)[nH]1 [AM16-105A, 6-(6-(4-(2-((2R)-4-((1r,3S)-adamantan-1-yl)-2-methyl-butanamido)ethyl)piperazin-1-yl)pyridin-3-yl)-N-((4,6-dimethyl-2-oxo-1,2-dihydropyridin-3-yl)methyl)-1-isopropyl-1H-indazole-4-carboxamide] |  | 2.3 µM |  |  | 1.2 µM |  |
| Cc1cc(C)c(CNC(=O)c2cc(-c3ccc(N4CCN(CCNC(=O)CC5C6CC7CC(C6)CC5C7)CC4)nc3)cc3c2cnn3C(C)C)c(=O)[nH]1 (stereo not drawn) [AM29-182A, 6-(6-(4-(2-(2-((1r,3r,5r,7r)-adamantan-2-yl)acetamido)ethyl)piperazin-1-yl)pyridin-3-yl)-N-((4,6-dimethyl-2-oxo-1,2-dihydropyridin-3-yl)methyl)-1-isopropyl-1H-indazole-4-carboxamide] | 1.8 µM |  | 3.9 µM | 2.5 µM |  |  |
| Cc1cc(C)c(CNC(=O)c2cc(-c3ccc(N4CCN(C(=O)CC56CC7CC(CC(C7)C5)C6)CC4)nc3)cc3c2cnn3C(C)C)c(=O)[nH]1 [AM16-92A, 6-(6-(4-(2-((1s,3s)-adamantan-1-yl)acetyl)piperazin-1-yl)pyridin-3-yl)-N-((4,6-dimethyl-2-oxo-1,2-dihydropyridin-3-yl)methyl)-1-isopropyl-1H-indazole-4-carboxamide] |  | 1 µM |  |  | 1.1 µM |  |

The remaining lines, values ahead:

| GI50 (MDA-MB-468 cells) | GI50 (MCF-7 cells) | GI50 (HCC1954 cells) | GI50 (BT549 cells) | GI50 (HCC1187 cells) | GI50 (HCC1170 cells) | SMILES |
| --- | --- | --- | --- | --- | --- | --- |
| 0.2 µM | 0.28 µM |  |  |  |  | Cc1cc(C)c(CNC(=O)c2cc(-c3ccc(N4CCN(CCNC(=O)CC56CC7CC(C)(CC(C)(C7)C5)C6)CC4)nc3)cc3c2cnn3C(C)C)c(=O)[nH]1 [AM29-21A, N-((4,6-dimethyl-2-oxo-1,2-dihydropyridin-3-yl)methyl)-6-(6-(4-(2-(2-((1r,3R,5S,7r)-3,5-dimethyladamantan-1-yl)acetamido)ethyl)piperazin-1-yl)pyridin-3-yl)-1-isopropyl-1H-indazole-4-carboxamide] |
| 1.2 µM |  | 2.1 µM | 1.4 µM |  |  | Cc1cc(C)c(CNC(=O)c2cc(-c3ccc(N4CCN(CCNCCC56CC7CC(CC(C7)C5)C6)CC4)nc3)cc3c2cnn3C(C)C)c(=O)[nH]1 [AM16-103A, 6-(6-(4-(2-((2-((3r,5r,7r)-adamantan-1-yl)ethyl)amino)ethyl)piperazin-1-yl)pyridin-3-yl)-N-((4,6-dimethyl-2-oxo-1,2-dihydropyridin-3-yl)methyl)-1-isopropyl-1H-indazole-4-carboxamide] |
| 1.1 µM | 0.69 µM |  |  |  |  | Cc1cc(C)c(CNC(=O)c2cc(-c3ccc(N4CCN(CCNC(=O)C56CC7CC(CC(C7)C5)C6)CC4)nc3)cc3c2cnn3C(C)C)c(=O)[nH]1 [AM16-101A, 6-(6-(4-(2-((1s,3s)-adamantane-1-carboxamido)ethyl)piperazin-1-yl)pyridin-3-yl)-N-((4,6-dimethyl-2-oxo-1,2-dihydropyridin-3-yl)methyl)-1-isopropyl-1H-indazole-4-carboxamide] |
| 0.71 µM | 0.7 µM |  |  |  |  | Cc1cc(C)c(CNC(=O)c2cc(-c3ccc(N4CCN(CCC(=O)NCC56CC7CC(CC(C7)C5)C6)CC4)nc3)cc3c2cnn3C(C)C)c(=O)[nH]1 [AM29-33A, 6-(6-(4-(3-((((3r,5r,7r)-adamantan-1-yl)methyl)amino)-3-oxopropyl)piperazin-1-yl)pyridin-3-yl)-N-((4,6-dimethyl-2-oxo-1,2-dihydropyridin-3-yl)methyl)-1-isopropyl-1H-indazole-4-carboxamide] |
| 0.54 µM | 0.35 µM | 2.7 µM | 2.2 µM | 0.65 µM |  | Cc1cc(C)c(CNC(=O)c2cc(-c3ccc(N4CCN(CCNC(=O)CC56CC7CC(CC(C7)C5)C6)CC4)nc3)cc3c2cnn3C(C)C)c(=O)[nH]1 [XY019-43, 6-(6-(4-(2-(2-((3r,5r,7r)-adamantan-1-yl)acetamido)ethyl)piperazin-1-yl)pyridin-3-yl)-N-((4,6-dimethyl-2-oxo-1,2-dihydropyridin-3-yl)methyl)-1-isopropyl-1H-indazole-4-carboxamide] |
| 0.87 µM | 0.69 µM |  |  |  |  | Cc1cc(C)c(CNC(=O)c2cc(-c3ccc(N4CCN(CCNC(=O)C56CC7CC(C)(CC(C)(C7)C5)C6)CC4)nc3)cc3c2cnn3C(C)C)c(=O)[nH]1 [AM29-22A, N-((4,6-dimethyl-2-oxo-1,2-dihydropyridin-3-yl)methyl)-6-(6-(4-(2-((1R,3S)-3,5-dimethyladamantane-1-carboxamido)ethyl)piperazin-1-yl)pyridin-3-yl)-1-isopropyl-1H-indazole-4-carboxamide] |
